In series [1] the target is T1, UDP-glucuronosyltransferase 1A1 (Homo sapiens, UniProt P22309).
T1 sequence (P22309 whole entry): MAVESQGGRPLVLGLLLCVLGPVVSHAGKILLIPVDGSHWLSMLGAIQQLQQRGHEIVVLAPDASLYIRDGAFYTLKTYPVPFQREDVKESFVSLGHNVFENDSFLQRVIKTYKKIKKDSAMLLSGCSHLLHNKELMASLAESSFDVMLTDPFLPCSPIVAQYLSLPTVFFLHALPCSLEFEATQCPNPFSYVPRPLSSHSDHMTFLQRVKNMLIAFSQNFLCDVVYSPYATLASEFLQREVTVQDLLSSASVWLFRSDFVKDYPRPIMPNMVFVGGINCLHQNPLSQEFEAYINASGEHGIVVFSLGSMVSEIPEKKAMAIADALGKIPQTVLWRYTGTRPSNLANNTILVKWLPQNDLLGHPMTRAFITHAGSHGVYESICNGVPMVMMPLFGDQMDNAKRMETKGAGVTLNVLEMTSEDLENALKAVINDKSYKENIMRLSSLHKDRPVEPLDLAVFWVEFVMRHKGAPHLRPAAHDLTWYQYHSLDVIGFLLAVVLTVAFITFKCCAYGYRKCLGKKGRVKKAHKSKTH
As to the kind of experiment: Inhibition of human recombinant UGT1A1 expressed in HEK293 cells assessed as reduction in bilirubin glucuronidation by LC-MS/MS method. In kind it is ADME, cell-based.

Series [2] addresses T1, UDP-glucuronosyltransferase 1A1. As to the kind of experiment: Inhibition of human recombinant UGT1A1 expressed in HEK293 cells assessed as reduction in estradiol 3-glucuronidation by LC-MS/MS method. Format: ADME, cell-based.
The target is the same in series [3]. As to the kind of experiment: Inhibition of human recombinant UGT1A1 expressed in HEK293 cells assessed as reduction in estradiol 3-glucuronidation using 4 to 75 uM estradiol by LC-MS/MS method. Format: ADME, cell-based.
For series [4] the target is unchanged. Nature of the series: Inhibition of human recombinant UGT1A1 expressed in HEK293 cells assessed as reduction in estradiol 3-glucuronidation at 50 uM using >15 uM estradiol by LC-MS/MS method. In kind it is ADME, cell-based. To be noted: hek293, 50 µM.
The target is the same in series [5]. Nature of the series: Activation of human recombinant UGT1A1 expressed in HEK293 cells assessed as increase in estradiol 3-glucuronidation by LC-MS/MS method relative to untreated control. Format: ADME, cell-based.
For series [6] the target is unchanged. As to the kind of experiment: Activation of human recombinant UGT1A1 expressed in HEK293 cells assessed as increase in estradiol 3-glucuronidation at 6.25 uM using 4 uM estradiol by LC-MS/MS method relative to untreated control. Format: ADME, cell-based. To be noted: hek293, 6.25 µM.
Series [7] has the same target. As to the kind of experiment: Activation of human recombinant UGT1A1 expressed in HEK293 cells assessed as increase in estradiol 3-glucuronidation at 6.25 uM by LC-MS/MS method. To be noted: hek293, 6.25 µM. Format: ADME, cell-based.
Series [8] has the same target. As to the kind of experiment: Activation of human recombinant UGT1A1 expressed in HEK293 cells assessed as increase in estradiol 3-glucuronidation using 15 uM estradiol by LC-MS/MS method relative to untreated control. In kind it is ADME, cell-based.
The target of series [9] is T2, UGT1A1 (Homo sapiens, UniProt P22309).
T2 sequence (P22309 whole entry): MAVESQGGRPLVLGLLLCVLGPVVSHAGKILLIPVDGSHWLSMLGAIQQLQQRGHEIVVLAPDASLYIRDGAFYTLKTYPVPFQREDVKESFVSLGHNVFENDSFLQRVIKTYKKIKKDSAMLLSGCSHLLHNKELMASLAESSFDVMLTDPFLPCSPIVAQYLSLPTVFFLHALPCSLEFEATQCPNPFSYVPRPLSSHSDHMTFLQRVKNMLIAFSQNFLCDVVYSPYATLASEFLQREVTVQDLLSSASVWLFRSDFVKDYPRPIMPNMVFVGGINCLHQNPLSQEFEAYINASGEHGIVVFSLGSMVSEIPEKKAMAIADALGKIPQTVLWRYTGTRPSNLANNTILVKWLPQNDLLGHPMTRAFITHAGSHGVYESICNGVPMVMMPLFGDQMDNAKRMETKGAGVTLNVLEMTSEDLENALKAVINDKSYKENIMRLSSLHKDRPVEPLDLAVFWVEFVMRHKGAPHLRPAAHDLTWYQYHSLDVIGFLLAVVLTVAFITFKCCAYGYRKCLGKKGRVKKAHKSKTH
As to the kind of experiment: Activation of human recombinant UGT1A1 expressed in HEK293 cells assessed as increase in estradiol 3-glucuronidation using 7.5 uM estradiol by LC-MS/MS method relative to untreated control. Format: ADME, cell-based. To be noted: probe estradiol (3-glucuronidation).

Substrate in series [10]: CCc1c2c(nc3ccc(O)cc13)-c1cc3c(c(=O)n1C2)COC(=O)[C@]3(O)CC
As to the kind of experiment: Drug metabolism assessed as UGT1A1 (unknown origin)-mediated compound glucuronidation. In kind it is ADME, Homo sapiens.

Broadly, the IC50 is the concentration needed to halve the response being measured. The term Km denotes the concentration of substrate that gives half-maximal velocity.

As to `O=C1NC(=O)C(c2ccccc2)(c2ccc(O)cc2)N1` (configuration not stated), the results for the IC50 in series [1] and in series [2] (read-out: IC50) were 120 µM and 110 µM, respectively.
The like results for `Cc1nnc(C(=O)NC(C)(C)c2nc(C(=O)NCc3ccc(F)cc3)c(O)c(=O)n2C)o1` were, in that order, 170 µM and 190 µM.
On the same counts, the results for `O=C1c2ccc(O)cc2C(=O)c2ccc(O)cc21` are 3.6 µM and 4 µM.
In the case of `Oc1cccc2ccccc12` [1-NAPHTHOL], the values for the IC50 in series [1] and in [2] (read-out: IC50) were 240 µM and 280 µM, respectively.
For the molecule `CCc1c2c(nc3ccc(O)cc13)-c1cc3c(c(=O)n1C2)COC(=O)[C@]3(O)CC` [7-ETHYL-10-HYDROXYCAMPTOTHECIN], the values for the IC50 in series [1] and in series [2] (hek293) were 360 µM and “Not Active”, respectively. Besides, the “inhibition (INH)” value in [3] stood at 40%.
As for `O=c1cc(-c2ccccc2)oc2cc(O)c(O)c(O)c12` [BAICALEIN], the IC50 in series [1] was found to be 7 µM; in series [2] (read-out: IC50) it was 4.4 µM.
For `O=c1c(-c2ccc(O)cc2)coc2cc(O)ccc12` [DAIDZEIN], in series [4], the “inhibition (INH)” value is reported as “Active”. Also, the IC50 in [1] stood at 7.3 µM; in series [2] (read-out: IC50), 120 µM. The results for the Activity result in series [5], in [6] and in series [7] were “Active”, 392% and “Active”, respectively.
In the case of `C#C[C@]1(O)CC[C@H]2[C@@H]3CCc4cc(O)ccc4[C@H]3CC[C@@]21C` [ETHINYL ESTRADIOL], the Activity in [8] was 128%; in [5], “Active”; in series [9] it was ≤ 140%. The IC50 in series [1] came to 21 µM; in series [2] (read-out: IC50) it was 44 µM.
As for `CC(C)=CCC/C(C)=C/CC/C(C)=C/CO` [FARNESOL], the IC50 came to 47 µM in series [1] and 40 µM in [2] (read-out: IC50).
Turning to `Cc1cc(=O)oc2cc(O)ccc12` [HYMECROMONE], the IC50 in series [1] and in [2] (read-out: IC50) was 100 µM in each case.
On to `CC(=O)N1CCN(c2ccc(OCC3COC(Cn4ccnc4)(c4ccc(Cl)cc4Cl)O3)cc2)CC1` (configuration not stated) [KETOCONAZOLE], for which the IC50 was found to be 27 µM in series [1] and 13 µM in series [2] (read-out: IC50).
The like results for `N[C@@H](Cc1cc(I)c(Oc2cc(I)c(O)c(I)c2)c(I)c1)C(=O)O` [LEVOTHYROXINE] were, in that order, 4.9 µM and 5.6 µM.
On the same counts, the results for `O=C(O)c1cccnc1Nc1cccc(C(F)(F)F)c1` [NIFLUMIC ACID] are 53 µM and 13 µM.
On the same counts, the results for `Nc1nc2ccc(OC(F)(F)F)cc2s1` [RILUZOLE] are 180 µM and 160 µM.

B1: UDP-glucuronosyltransferase 1A1 (Homo sapiens) (protein)
chain: MAVESQGGRPLVLGLLLCVLGPVVSHAGKILLIPVDGSHWLSMLGAIQQLQQRGHEIVVLAPDASLYIRDGAFYTLKTYPVPFQREDVKESFVSLGHNVFENDSFLQRVIKTYKKIKKDSAMLLSGCSHLLHNKELMASLAESSFDVMLTDPFLPCSPIVAQYLSLPTVFFLHALPCSLEFEATQCPNPFSYVPRPLSSHSDHMTFLQRVKNMLIAFSQNFLCDVVYSPYATLASEFLQREVTVQDLLSSASVWLFRSDFVKDYPRPIMPNMVFVGGINCLHQNPLSQEFEAYINASGEHGIVVFSLGSMVSEIPEKKAMAIADALGKIPQTVLWRYTGTRPSNLANNTILVKWLPQNDLLGHPMTRAFITHAGSHGVYESICNGVPMVMMPLFGDQMDNAKRMETKGAGVTLNVLEMTSEDLENALKAVINDKSYKENIMRLSSLHKDRPVEPLDLAVFWVEFVMRHKGAPHLRPAAHDLTWYQYHSLDVIGFLLAVVLTVAFITFKCCAYGYRKCLGKKGRVKKAHKSKTH
Consider B1, for which the Km in [10] came out at 25 µM.

These data come from ChEMBL document CHEMBL3526014, “Correlation between bilirubin glucuronidation and estradiol-3-gluronidation in the presence of model UDP-glucuronosyltransferase 1A1 substrates/inhibitors” (Drug Metab Dispos, 2011).
